Experimental data from the PolyMetriX glass transition set.
± gives the standard deviation of the reports.

Which glass transition temperature does the source give for `*c1cc(CCOC(=O)C(C)Br)c(*)s1` (repeat unit) here?
The glass transition temperature was 49.00 °C.

Which glass transition temperature does the source give for `*Oc1cccc(OC(=O)c2ccc(OC(=O)c3cccc(C(=O)Oc4ccc(C(*)=O)cc4)c3)cc2)c1` (repeat unit) here?
The glass transition temperature was 158.00 °C.

With `*Oc1ccc(C(C)(C)c2ccc(OC(*)=O)c(Cl)c2)cc1C` (repeat unit) as the compound, how does the glass transition temperature read?
The glass transition temperature was 138.00 °C.

With `*Oc1cccc2c(OC3(F)C(*)(F)C(F)(F)C3(F)F)cccc12` (repeat unit) as the compound, how does the glass transition temperature read?
Its glass transition temperature is 138.00 °C.

Which glass transition temperature does the source give for `*c1ccc(C2(c3ccc(-c4nnc(*)o4)cc3)OC(=O)c3ccccc32)cc1` (repeat unit) here?
Its glass transition temperature is 380.00 °C.

Which glass transition temperature does the source give for `*Oc1ccc(C2(c3ccc(OC(*)=O)cc3)CCCCCC2)cc1` (repeat unit) here?
Its glass transition temperature is 155.00 °C.

For `*c1ccc(-c2nc3cc(Oc4ccc5nc(*)c(-c6ccccc6)nc5c4)ccc3nc2-c2ccccc2)cc1` (repeat unit), which glass transition temperature is on record?
The glass transition temperature was 326.00 °C.

Which glass transition temperature does the source give for `*Nc1ccc(-c2ccc(NC(=O)c3cc(NC(=O)c4ccncc4)cc(C(*)=O)c3)cc2)cc1` (repeat unit) here?
Its glass transition temperature is 339.00 °C.

Which glass transition temperature does the source give for `*C1C(*)C2CC1C(C(=O)OCC13CC4CC(CC(C4)C1)C3)C2C(=O)OCC12CC3CC(CC(C3)C1)C2` (repeat unit) here?
Its glass transition temperature is 328.00 °C.

With `*=Nc1ccc(Cc2ccc(NC(=*)CCC)cc2)cc1` (repeat unit) as the compound, how does the glass transition temperature read?
Its glass transition temperature is 110.00 °C.

With `*Oc1ccc(OC(=O)c2cc(OCCCCCCCCCCOCC3CCCN3c3ccc([N+](=O)[O-])cc3)c(C(*)=O)cc2OCCCCCCCCCCOCC2CCCN2c2ccc([N+](=O)[O-])cc2)cc1` (repeat unit) as the compound, how does the glass transition temperature read?
The glass transition temperature was 30.00 °C.

With `*Oc1ccc(C(C)(C)c2ccc(OC(*)=O)c(Cl)c2)cc1` (repeat unit) as the compound, how does the glass transition temperature read?
The glass transition temperature was 146.00 °C.

Which glass transition temperature does the source give for `*C(=O)c1ccc2c(c1)C(=O)N(c1cccc(Nc3nc(Nc4cccc(N5C(=O)c6ccc(*)cc6C5=O)c4)nc(-c4ccccc4)n3)c1)C2=O` (repeat unit) here?
The glass transition temperature was 292.00 °C.

Which glass transition temperature does the source give for `*CCCCOC(=O)CCCCC(=O)O*` (repeat unit) [Poly(tetramethylene adipate) ] here?
Its glass transition temperature is -68 ± 2.1 °C.

With `*CC(*)(C)C(=O)OCCCCCCCCCCCOc1ccc(/C=N/c2ccc(C#N)cc2)cc1` (repeat unit) as the compound, how does the glass transition temperature read?
Its glass transition temperature is 23.00 °C.

With `*c1ccc(C(=O)NCCCCCCCCNC(=O)c2ccc(-c3nc4ccccc4nc3*)cc2)cc1` (repeat unit) as the compound, how does the glass transition temperature read?
Its glass transition temperature is 185.00 °C.

Which glass transition temperature does the source give for `*c1ccc(OC(=O)c2cc(C(=O)Oc3ccc(C4(*)OC(=O)c5ccccc54)cc3)cc(C(C)(C)C)c2)cc1` (repeat unit) here?
Its glass transition temperature is 279.00 °C.

With `*c1ccc(Oc2ccc(Sc3ccc(Oc4ccc(-c5nc(*)nc(-c6ccccc6)n5)cc4)cc3)cc2)cc1` (repeat unit) as the compound, how does the glass transition temperature read?
The glass transition temperature was 211.00 °C.

With `*C1C(*)C2CC1C(C(=O)OCCC13CC4CC(CC(C4)C1)C3)C2C(=O)OCCC12CC3CC(CC(C3)C1)C2` (repeat unit) as the compound, how does the glass transition temperature read?
Its glass transition temperature is 300.00 °C.

Which glass transition temperature does the source give for `*Oc1cccc(NC(=O)c2ccc(Oc3ccc(C(C)(C)c4ccc(C(C)(C)c5ccc(Oc6ccc(C(=O)Nc7ccc(*)cc7)cc6)cc5)cc4)cc3)cc2)c1` (repeat unit) here?
Its glass transition temperature is 168.00 °C.

With `*c1ccc(Oc2cccc(Oc3ccc(N4C(=O)c5ccc(Oc6ccc(-c7ccc(Oc8ccc9c(c8)C(=O)N(*)C9=O)cc7)cc6)cc5C4=O)cc3)c2)cc1` (repeat unit) as the compound, how does the glass transition temperature read?
Its glass transition temperature is 205.00 °C.

Which glass transition temperature does the source give for `*OC(C)COCC(C)OC(=O)c1ccccc1C(*)=O` (repeat unit) here?
Its glass transition temperature is 25.00 °C.

For `*c1ccc(C(C#N)(C(=O)O)C(*)(C#N)C(=O)O)cc1` (repeat unit), which glass transition temperature is on record?
The glass transition temperature was 108.00 °C.

For `*O[Si](*)(C)CCCCCCOc1ccc(C(=O)Oc2ccc(OC)cc2)cc1` (repeat unit), which glass transition temperature is on record?
Its glass transition temperature is -2.00 °C.

For `*Nc1ccc(Cc2ccc(NC(=O)CCCCCCCC(*)=O)cc2)cc1` (repeat unit), which glass transition temperature is on record?
The glass transition temperature was 140.00 °C.

With `*Nc1cc(NC(=O)c2cc(OCCN(C)c3ccc([N+](=O)[O-])cc3)cc(C(*)=O)c2)cc(C(=O)OC2CC(C)CCC2C(C)C)c1` (repeat unit) as the compound, how does the glass transition temperature read?
Its glass transition temperature is 193.00 °C.

Which glass transition temperature does the source give for `*C(=O)OCCCCCCCOC(=O)c1ccc(NC(=O)c2ccc(N3C(=O)c4ccc(*)cc4C3=O)cc2)cc1` (repeat unit) here?
Its glass transition temperature is 106.00 °C.

Which glass transition temperature does the source give for `*CCCCCC(=O)Oc1ccc(C2(c3ccc(OC(=O)c4ccc5c(c4)C(=O)N(*)C5=O)cc3)CCCCC2)cc1` (repeat unit) here?
The glass transition temperature was 122.00 °C.

Which glass transition temperature does the source give for `*Oc1c(C)cc(*)cc1C` (repeat unit) here?
Its glass transition temperature is 212.00 °C.

Which glass transition temperature does the source give for `*CCCOC(=O)NNC(=O)CCCCCCCCC(=O)NNC(=O)O*` (repeat unit) here?
Its glass transition temperature is 22.00 °C.

Which glass transition temperature does the source give for `*C1CCC(*)C1` (repeat unit) here?
Its glass transition temperature is 65.10 °C.

With `*Cc1ccc2oc(=O)c(C(=O)Nc3ccc(Oc4ccc(NC(=O)c5cc6cc(*)ccc6oc5=O)cc4)cc3)cc2c1` (repeat unit) as the compound, how does the glass transition temperature read?
The glass transition temperature was 312.00 °C.

With `*O[Si](*)(C)CCCC(=O)OCC` (repeat unit) as the compound, how does the glass transition temperature read?
The glass transition temperature was -82.00 °C.

For `*Oc1ccc(C(C)(CCC#N)c2ccc(OC(*)=O)c(C)c2)cc1C` (repeat unit), which glass transition temperature is on record?
Its glass transition temperature is 117.00 °C.

Which glass transition temperature does the source give for `*CC(*)OC(=O)c1ccc(C)cc1` (repeat unit) here?
Its glass transition temperature is 73.50 °C.

For `*c1ccc(-c2ccc(-c3ccc4c(c3)C(CCCCCCCC)(CCCCCCCC)c3cc(-c5ccc(*)s5)ccc3-4)s2)cn1` (repeat unit), which glass transition temperature is on record?
The glass transition temperature was 127.50 °C.

Which glass transition temperature does the source give for `*CC(*)(C)C(=O)OC1CC2CC1C1C3CCC(C3)C21` (repeat unit) here?
Its glass transition temperature is 199.00 °C.

Which glass transition temperature does the source give for `*c1ccc(CCc2ccc(N3C(=O)C(=O)N(c4ccc(CCc5ccccc5N5C(=O)C(=O)N(*)C5=O)cc4)C3=O)cc2)cc1` (repeat unit) here?
The glass transition temperature was 220.00 °C.

Which glass transition temperature does the source give for `*Nc1ccc(Oc2ccc(Nc3ccc4c(c3)c3cc(*)ccc3n4CC(CC)CCCC)cc2)cc1` (repeat unit) here?
The glass transition temperature was 220.00 °C.

For `*C1C(=O)N(CCCCCOc2ccc(-c3ccc(C#N)cc3)cc2)C(=O)C1*` (repeat unit), which glass transition temperature is on record?
Its glass transition temperature is 75.00 °C.

With `*Sc1ccc(C(=O)c2ccc(C(c3ccc(C(=O)c4ccc(*)cc4)cc3)(C(F)(F)F)C(F)(F)F)cc2)cc1` (repeat unit) as the compound, how does the glass transition temperature read?
Its glass transition temperature is 175.00 °C.

For `*CCOC(=O)CCCCCC(=O)O*` (repeat unit), which glass transition temperature is on record?
Its glass transition temperature is -46.00 °C.

Which glass transition temperature does the source give for `*[O][Sn]([CH2]CCC)([CH2]CCC)[O]C(=O)c1ccc(C(*)=O)cc1` (repeat unit) here?
Its glass transition temperature is 315.00 °C.

For `*Oc1c(C(C)C)cc(*)cc1C(C)C` (repeat unit), which glass transition temperature is on record?
Its glass transition temperature is 152.40 °C.

For `*c1ccc(OC(=O)c2ccc([Si](C)(C)c3ccc(C(=O)Oc4ccc(C5(*)OC(=O)c6ccccc65)cc4)cc3)cc2)cc1` (repeat unit), which glass transition temperature is on record?
Its glass transition temperature is 214.00 °C.

Which glass transition temperature does the source give for `*CC(*)c1ccccc1C(=O)OCCCCC` (repeat unit) here?
The glass transition temperature was 92.00 °C.

Which glass transition temperature does the source give for `*OS(=O)(=O)c1ccc(*)cc1` (repeat unit) here?
The glass transition temperature was 119.00 °C.

With `*CCC(C)CCOC(=O)CCCCC(=O)O*` (repeat unit) as the compound, how does the glass transition temperature read?
Its glass transition temperature is -78.60 °C.

Which glass transition temperature does the source give for `*N=P(*)(C)CCCCCC` (repeat unit) here?
Its glass transition temperature is -69.00 °C.

Which glass transition temperature does the source give for `*CCCCCCC(Cl)C(*)Cl` (repeat unit) here?
The glass transition temperature was -18.00 °C.

For `*CCc1ccc(CCNC(=O)CCCCCCCCCC(=O)N*)cc1` (repeat unit), which glass transition temperature is on record?
Its glass transition temperature is 96.00 °C.

For `*C(=O)Nc1ccc(C(c2ccc(NC(=O)c3ccc4c(c3)C(=O)N(c3ccc(Oc5ccc6ccc(Oc7ccc(N8C(=O)c9ccc(*)cc9C8=O)cc7)cc6c5)cc3)C4=O)cc2)(C(F)(F)F)C(F)(F)F)cc1` (repeat unit), which glass transition temperature is on record?
Its glass transition temperature is 292.00 °C.

Which glass transition temperature does the source give for `*CCCCCCOC(=O)NCC(F)(F)C(F)(F)C(F)(F)C(F)(F)CNC(=O)O*` (repeat unit) here?
The glass transition temperature was 5.00 °C.

For `*c1cc(OCCCCCCCC)cc(N2C(=O)c3ccc(Oc4ccc5c(c4)C(=O)N(*)C5=O)cc3C2=O)c1` (repeat unit), which glass transition temperature is on record?
The glass transition temperature was 185.00 °C.

For `*Oc1ccc(C(C)(c2ccccc2)c2ccc(Oc3ccc(C(=O)C(=O)c4ccc(*)cc4)cc3)cc2)cc1` (repeat unit), which glass transition temperature is on record?
The glass transition temperature was 177.00 °C.

Which glass transition temperature does the source give for `*Nc1ccc(Cc2ccc(NC(=O)c3cc(NC(=O)C(C(C)CC)N4C(=O)c5ccccc5C4=O)cc(C(*)=O)c3)cc2)cc1` (repeat unit) here?
The glass transition temperature was 195.00 °C.

With `*C(=O)c1ccc2c(c1)C(=O)N(c1cccc(C(=O)c3c(C)cc(C)c(N4C(=O)c5ccc(*)cc5C4=O)c3C)c1)C2=O` (repeat unit) as the compound, how does the glass transition temperature read?
Its glass transition temperature is 300.00 °C.

With `*c1cccc(Oc2ccc(-c3ccc(Oc4cccc(-n5c(=O)c6cc7c(=O)n(*)c(=O)c7cc6c5=O)c4)cc3)cc2)c1` (repeat unit) as the compound, how does the glass transition temperature read?
Its glass transition temperature is 251.00 °C.

Which glass transition temperature does the source give for `*C(=O)c1cc2c(cc1Cl)C(=O)N(c1cc(Cl)cc(N3C(=O)c4cc(*)c(Cl)cc4C3=O)c1)C2=O` (repeat unit) here?
Its glass transition temperature is 311.00 °C.

With `*Oc1ccc(CC(NC(=O)CCc2ccc(OC(=O)CCCCCCCCC(*)=O)cc2)C(=O)OCC(C)C)cc1` (repeat unit) as the compound, how does the glass transition temperature read?
Its glass transition temperature is 33.00 °C.

With `*CCCC1(C)CCN(C(=O)CCCC(=O)N2CCC(*)(C)CC2)CC1` (repeat unit) as the compound, how does the glass transition temperature read?
The glass transition temperature was 58.00 °C.

Which glass transition temperature does the source give for `*C(=O)Nc1cc(C(c2cc(C)c(C)c(NC(=O)c3ccc4c(c3)C(=O)N(c3cccc5c(N6C(=O)c7ccc(*)cc7C6=O)cccc35)C4=O)c2)(C(F)(F)F)C(F)(F)F)cc(C)c1C` (repeat unit) here?
The glass transition temperature was 250.00 °C.

Which glass transition temperature does the source give for `*C(=O)c1ccc2c(c1)C(=O)N(c1ccc(Oc3ccc(Oc4ccc(N5C(=O)c6ccc(*)cc6C5=O)cc4C(F)(F)F)cc3)cc1)C2=O` (repeat unit) here?
Its glass transition temperature is 237.10 °C.

For `*C(=O)Nc1ccc(Oc2ccc(-c3ccc(Oc4ccc(NC(=O)c5ccc6c(c5)C(=O)N(c5ccc(Oc7cccc8c(Oc9ccc(N%10C(=O)c%11ccc(*)cc%11C%10=O)cc9)cccc78)cc5)C6=O)cc4)cc3)cc2)cc1` (repeat unit), which glass transition temperature is on record?
The glass transition temperature was 310.00 °C.

With `*c1ccc(Oc2ccc(C(c3ccc(Oc4ccc(N5C(=O)c6ccc(-c7ccc8c(c7)C(=O)N(*)C8=O)cc6C5=O)cc4C(F)(F)F)cc3)(C(F)(F)F)C(F)(F)F)cc2)c(C(F)(F)F)c1` (repeat unit) as the compound, how does the glass transition temperature read?
The glass transition temperature was 223.00 °C.

For `*CCCCNC(=O)C(=O)N*` (repeat unit), which glass transition temperature is on record?
The glass transition temperature was 120.00 °C.

With `*c1ccc(Oc2ccc(-c3cc(-c4ccccc4)c4cc(C5(c6ccc7nc(*)cc(-c8ccccc8)c7c6)c6ccccc6-c6ccccc65)ccc4n3)cc2)cc1` (repeat unit) as the compound, how does the glass transition temperature read?
Its glass transition temperature is 315.00 °C.

Which glass transition temperature does the source give for `*CCCCCCCCCCCCOC(=O)c1ccc(-c2ccc(C(=O)O*)cc2)cc1` (repeat unit) here?
The glass transition temperature was 50.50 °C.
